Test results published in patent US6403778B1, “Toxicological response markers” (Incyte Genomics, Inc., priority 1998, dated 2002).

Key:
Details in all cases: male, Sprague-Dawley, rat, in vivo
P450 MCA-inducible = tested on: P450 MCA-inducible
Experimental: (§1) Animals were monitored daily for physical condition and body weight, and blood samples were assayed for serum alanine transferase (ALT) and aspartate aminotransferase (AST) levels using a diagnostic kit (Sigma Aldrich). Three animals per group were sacrificed approximately 12 hours (h), 24 h, 72 h, 168 h, 336 h and 672 h following the last dose administered. Observed gross pathology and liver weights were recorded at time of necropsy. Liver, kidney, brain, spleen and pancreas from each rat were harvested, flash frozen in liquid nitrogen, and stored at −80° C.
(§2) Frozen liver was homogenized and lysed in TRIZOL reagent (Cat. #10296-028; Life Technologies) following the modifications for liver RNA isolation. Poly(A+) RNA was isolated using an OLIGOTEX kit (Qiagen, Carlsbad, Calif.) and labeled with either Cy3 or Cy5-labeled primers (Operon Technologies, Alameda, Calif.) using the GEMBRIGHT labeling kit (Incyte Genomics). MRNA isolated from tissues of rats dosed with PB was labeled with Cy5 and mRNA isolated from tissues of rats dosed with DMSO was labeled with Cy3. Quantitative and differential expression pattern control cDNAs were added to each labeling reaction. Labeled cDNA was treated with 0.5 M sodium bicarbonate (pH9.2) for 20 min at 85° C. to degrade the RNA and purified using two successive CHROMA SPIN 30 gel filtration spin columns (Clontech, Palo Alto, Calif.). Cy3 labeled control sample and Cy5 labeled experimental sample were combined and precipitated in glycogen, sodium acetate, and ethanol.
(§3) Hybridization reactions contained 9 microliters of probe mixture consisting of 0.2 micrograms each of both Cy3 and Cy5 labeled cDNA synthesis products in 5×SSC, 0.2% SDS hybridization buffer. The probe mixture was heated to 65° C. for 5 min and was aliquoted onto the microarray surface and covered with an 1.8 cm^2 coverslip. The arrays were transferred to a waterproof chamber having a cavity just slightly larger than a microscope slide. The chamber was kept at 100% humidity internally by the addition of 140 microliters of 5×SSC in a corner of the chamber. The chamber containing the arrays was incubated for about 6.5 hours at 60° C. The arrays were washed for 10 min at 45° C. in low stringency wash buffer (1×SSC, 0.1% SDS), three times for 10 min each at 45 ° C. in high stringency wash buffer (0.1×SSC), and then dried.
(§4) The microscope used to detect the reporter-labeled hybridization complexes was outfitted with an Innova 70 mixed gas 10 W laser (Coherent Lasers, Santa Clara, Calif.) capable of generating spectral lines at 488 nm for excitation of Cy3, and 632 nm for excitation of Cy5. The excitation laser light was focused on the array using a 20X microscope objective (Nikon). […]

P450 ISF/B-NF = tested on: P450 ISF/B-NF
Experimental: as §1, §2, §3, §4

P450 LA-omega = tested on: P450 LA-omega
Experimental: as §1, §2, §3, §4

SEQ ID NOs: 1-47 = tested on: SEQ ID NOs: 1-47
Experimental: as §1, §2, §3, §4

In the case of `c1ccc2c(c1)cc1ccc3cccc4ccc2c1c34` [benzo(a)pyrene], the “P450 MCA-inducible upregulated at least once during the time course” value (P450 MCA-inducible) is reported as “greater than 3 fold”, the “P450 ISF/B-NF upregulated at least once during the time course” value (P450 ISF/B-NF) is reported as “greater than 3 fold” and the “P450 LA-omega upregulated at least once during the time course” value (P450 LA-omega) is reported as “greater than 3 fold”. The “SEQ ID NOs: 1-47 up-regulated or downregulated at least once during the time course” value (SEQ ID NOs: 1-47) was “at least 3 fold”.
